# Key:
# PilB (PilBGm) [1] = molecular target: T1, PilB (PilBGm) (Geobacter metallireducens, UniProt Q39VU7); assay: X-ray crystallography, […] Å (anisotropic); details: Mg2+; pH 7.6; 20 °C; no exogenous nucleotide, ADP co-purified from E. coli; four closed ATP binding sites
# T1 construct: hexamer; residues 181-568 (N2D + CTD) built; primer-encoded start MQASRL, end TVADD
# PilB (PilBGm) [2] = molecular target: T1, PilB (PilBGm); assay: X-ray crystallography, […] Å; details: Mg2+; pH 7.0; 20 °C; non-saturating AMP-PNP; ATP binding sites (closed full occupancy, open ~70%)
# [3] = molecular target: PilB from Geobacter metallireducens (Geobacter metallireducens); assay: crystal structure; PilB:ADP; no exogenous nucleotide added; 13% PEG3350, 0.1 M magnesium formate, 0.1 M Tris pH 7.6, vapour diffusion at 20 °C; three chains in the asymmetric unit, hexamer from crystal packing
# [4] = molecular target: PilB from Geobacter metallireducens (Geobacter metallireducens); assay: crystal structure; PilB:AMP-PNP; non-saturating AMP-PNP (50 μM final to 120 μM PilB); 11% PEG3350, 0.1 M magnesium formate, 0.1 M Tris pH 7.0, vapour diffusion at 20 °C; six chains in the asymmetric unit
# T1 sequence (Q39VU7 entry or part of it): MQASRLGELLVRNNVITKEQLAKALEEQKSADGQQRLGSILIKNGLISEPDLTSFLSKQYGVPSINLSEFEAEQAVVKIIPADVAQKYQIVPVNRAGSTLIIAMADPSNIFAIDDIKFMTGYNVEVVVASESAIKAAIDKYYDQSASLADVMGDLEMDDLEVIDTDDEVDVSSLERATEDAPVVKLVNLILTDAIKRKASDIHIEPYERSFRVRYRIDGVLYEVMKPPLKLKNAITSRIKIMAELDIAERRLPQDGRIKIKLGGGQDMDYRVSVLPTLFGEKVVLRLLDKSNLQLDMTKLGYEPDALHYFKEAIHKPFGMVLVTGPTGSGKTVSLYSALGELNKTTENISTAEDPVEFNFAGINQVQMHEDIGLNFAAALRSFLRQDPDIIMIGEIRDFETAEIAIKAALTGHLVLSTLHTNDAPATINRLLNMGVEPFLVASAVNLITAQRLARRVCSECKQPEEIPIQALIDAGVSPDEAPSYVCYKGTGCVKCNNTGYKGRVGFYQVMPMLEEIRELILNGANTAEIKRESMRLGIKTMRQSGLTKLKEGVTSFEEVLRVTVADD
compound,measurement,setting,value
Nc1ncnc2c1ncn2[C@@H]1O[C@H](COP(=O)(O)OP(=O)(O)O)[C@@H](O)[C@H]1O [ADP],"X-ray crystallography, 3.4 Å (anisotropic)",PilB (PilBGm) [1],"In four sites, ADP and magnesium best fit the electron density"
Nc1ncnc2c1ncn2[C@@H]1O[C@H](COP(=O)(O)OP(=O)(O)NP(=O)(O)O)[C@@H](O)[C@H]1O [AMP-PNP],"X-ray crystallography, 2.3 Å",PilB (PilBGm) [2],"Between two packing units, AMP-PNP, magnesium, and several highly ordered waters best fit"
PilB from Geobacter metallireducens (enzyme),stoichiometry N,[3],6
same,stoichiometry N,[4],6

# From paper PMC5424180, “The molecular mechanism of the type IVa pilus motors” (Nature Communications, 2017)
